Results published in patent US20260116892A1, “CRYSTAL FORM OF COMPOUND AND PREPARATION METHOD THEREFOR” (NANJING INNOCARE PHARMA TECH CO., LTD., priority 2022, published 2026).
“Also recorded” adds a separate entry of the source.

What was measured:
Assay type in all cases: physicochemical
[1] = Suspension competition experiment between the crystalline forms in solution; conditions: equal amount of forms A/B in saturated solution of isopropyl alcohol and water, room temperature, stirring 2 days
Experimental: The transformation relationship between the crystalline forms was studied by a suspension competition experiment in the solution. The suspension competition between the crystalline form A and the crystalline form B was carried out at room temperature. The crystalline form A was obtained by adding equal amount of the crystalline form A/B to the saturated solution of isopropyl alcohol and water with suspending and stirring for 2 days.

[2] = Hygroscopicity assessment by dynamic vapor sorption (DVS); conditions: 25° C.
Experimental: The “hygroscopicity” described in the present invention refers to the characteristic of the substance's ability or degree of absorbing water under the conditions of certain temperature and humidity. Regarding to the characteristic description of hygroscopicity and the definition of hygroscopic weight gain (performing experiments according to the method of guideline 9103 of Pharmacopoeia of the People's Republic of China (2015) Volume IV. experimental conditions: 25° C.±1° C., 80%±2% of relative humidity):
deliquescence: sufficient water absorption to form a solution; very hygroscopic: hygroscopic weight gain of not less than 15%; phygroscopic: hygroscopic weight gain of less than 15% but not less than 2%; slightly hygroscopic: hygroscopic weight gain of less than 2% but not less than 0.2%; not or almost not hygroscopic: hygroscopic weight gain of less than 0.2%.
The dynamic vapor sorption (DVS) diagram described in the present invention was acquired using an Intrinsic dynamic vapor sorption instrument produced by SMS (Surface Measurement Systems Ltd.). The method parameters of the dynamic vapor sorption described in the present invention are as follows: […]
About 30 mg of the crystalline form A of the present invention was taken and subjected to a dynamic vapor sorption test using a dynamic vapor sorption (DVS). […] The XRPD was measured before and after the test.

[3] = Stability assessment of the crystalline form A (solid, accelerated and 12 months)
From the text: The “stability” described in the present invention refers to that neither degradation of the crystalline form has been found nor transformation to other crystalline form has been detected in the determination of the crystalline form by analytical means such as LC detection, XRPD, etc.
The solid sample of crystalline form A was exposed to high temperature, high humidity and light (open) for au one month accelerated stability study to observe the purity of the sample and the stability of the crystalline form.
The solid sample of crystalline form A was placed under the 30° C./65% RH (closed) for a 12 months stability study to observe the purity of the sample and the stability of the crystalline form (XRPD pattern).

[4] = 12 months, 30° C./65% RH (closed)
[5] = Acceleration for 1 month (25° C., 90% ± 5% RH), open
[6] = Acceleration for 1 month (60° C.), open
[7] = Acceleration for 13 days (10 days of light exposure, 3 days of UV exposure), open

Crystalline form before and after DVS test (XRPD) ([2]; 0% RH to 95% RH)	Weight gain (DVS) ([2]; 80% relative humidity)	Purity (%) ([3]; 0 month (start of stability study))	Crystalline form (XRPD) [3, 4]	Purity (%) [3, 4]	Crystalline form (XRPD) [3, 5]	Purity (%) [3, 5]	Crystalline form (XRPD) [3, 6]	Purity (%) [3, 6]	Crystalline form (XRPD) [3, 7]	Purity (%) [3, 7]	SMILES	Thermodynamic stability / transformation in suspension competition [1]	Stability (conclusion in words) ([3]; 60° C. 1 month, 25° C./90%±5% RH 1 month, light 13 days, 30° C./65% RH 12 months)
remained unchanged	0.46%	98.9%	Unchanged	99.4%	Unchanged	98.5%	Unchanged	98.3%	Unchanged	99.4%	C[C@H]1CNC(=O)Nc2cnn3ccc(nc23)N2C[C@@H](F)C[C@@H]2c2cc(F)cnc2O1 [crystalline form A, (2^2R,2^4S,5S)-2^4,3^5-difluoro-5-methyl-4-oxa-7,9-diaza-1(5,3)-pyrazolo[1,5-a]pyrimidin-3(3,2)-pyridin-2(1,2)-pyrrolidincyclononan-8-one]	better thermodynamic stability	stable state; also recorded: good stability
–	–	–	–	–	–	–	–	–	–	–	C[C@H]1CNC(=O)Nc2cnn3ccc(nc23)N2C[C@@H](F)C[C@@H]2c2cc(F)cnc2O1 [crystalline form B, (2^2R,2^4S,5S)-2^4,3^5-difluoro-5-methyl-4-oxa-7,9-diaza-1(5,3)-pyrazolo[1,5-a]pyrimidin-3(3,2)-pyridin-2(1,2)-pyrrolidincyclononan-8-one]	can be transformed into the crystalline form A	–
